The record followed here is patent US12514938B2, “Fibroblast activation protein targeting peptides” (PERSPECTIVE THERAPEUTICS, INC., priority 2023, dated 2026).

*1 amine or outer side, *2 acyl side, *3 side chain or, on linkers, in order; H or OH if unused. Where a SMILES comes first, the peptide text is derived from it. Bridges are numbered along the chain shown (N, C = ends). [ ]: non-standard residue; d: D form. The star is where a group is joined. X2 = NC(=O)CN1CCN(CC(=O)O)CCN(CC(=O)NCCOCCOCCC(=O)NCCSCc2cc(C[*:1])cc(C[*:2])c2)CCN(CC(=O)O)CC1; X1 = NC(=O)CN1CCN(CC(=O)O)CCN(CC(=O)*)CCN(CC(=O)O)CC1; 1Nal = N[C@@H](Cc1cccc2ccccc12)C(=O)O; 2Nal = N[C@@H](Cc1ccc2ccccc2c1)C(=O)O; mXylylene = c1cc(C[*:1])cc(C[*:2])c1; oXylylene = c1ccc(C[*:2])c(C[*:1])c1; PEG3 = NCCOCCOCCOCCC(=O)O; PEG2 = NCCOCCOCCC(=O)O; PEG1 = NCCOCCC(=O)O

The test has as its target T1, Human Fibroblast Activation Protein (FAP) (Homo sapiens, UniProt Q12884).
T1 sequence (Q12884 1-760): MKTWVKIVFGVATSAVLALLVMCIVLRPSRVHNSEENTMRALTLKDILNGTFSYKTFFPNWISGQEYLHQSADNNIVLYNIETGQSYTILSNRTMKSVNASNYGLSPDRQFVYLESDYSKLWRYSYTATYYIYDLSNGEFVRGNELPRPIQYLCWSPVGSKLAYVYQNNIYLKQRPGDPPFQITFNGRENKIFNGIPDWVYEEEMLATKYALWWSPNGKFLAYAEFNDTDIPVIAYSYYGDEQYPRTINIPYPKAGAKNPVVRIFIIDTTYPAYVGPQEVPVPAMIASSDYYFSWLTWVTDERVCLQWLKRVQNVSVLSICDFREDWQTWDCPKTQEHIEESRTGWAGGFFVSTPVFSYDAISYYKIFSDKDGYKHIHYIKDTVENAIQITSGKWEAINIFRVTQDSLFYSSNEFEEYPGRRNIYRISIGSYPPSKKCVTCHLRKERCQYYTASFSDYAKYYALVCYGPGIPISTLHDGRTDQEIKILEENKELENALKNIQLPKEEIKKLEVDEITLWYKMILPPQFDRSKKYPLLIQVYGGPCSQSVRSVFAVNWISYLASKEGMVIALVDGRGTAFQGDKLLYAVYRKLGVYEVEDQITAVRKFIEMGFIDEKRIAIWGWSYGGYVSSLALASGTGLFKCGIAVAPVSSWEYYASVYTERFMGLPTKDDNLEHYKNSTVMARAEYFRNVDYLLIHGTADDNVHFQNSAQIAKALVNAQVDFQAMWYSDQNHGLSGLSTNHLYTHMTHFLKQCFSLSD
As to the kind of experiment: Enzyme inhibition assay against human FAP (substrate Z-GP-AMC), Example 1. Format: biochemical. Particulars: human FAP 5 ng/well, 50 μM Z-GP-AMC; Ki from IC50 by Cheng-Prusoff. Here is the method:
Binding Affinity Against Human Fibroblast Activation Protein (FAP)
An enzyme inhibition assay was performed to determine IC50 values and then the Cheng-Prusoff equation used to calculate the Ki given a known Km of the substrate Z-GP-AMC for FAP. To perform the assay, FAP (5 ng/well) and the test peptide at varying concentrations (i.e. 10^−6 to 10^−12) were incubated in a black 96-well plate for 10 minutes at RT on a shaker plate. Then, the substrate Z-GP-AMC was added to give a final concentration of 50 μM. The total reaction volume per well was 100 μL The reaction was allowed to incubate at RT on a shaker plate for 1 hour protected from light, and then fluorescence read with a BioTek Synergy LX plate reader at an ex/em (360/40 and 460/40). Experiments were performed in at least duplicate, and controls of buffer only, buffer and FAP enzyme, and buffer with substrate and FAP enzyme only were included for comparison. The buffer used for the assay was 50 mM Tris-HCl, 1M NaCl, and 1 mg/mL BSA, pH=7.5. Data was plotted in GraphPad Prism and non-linear regression used to calculate IC50 values. The compounds tested and Ki values of each were as follows: […]
As to `C[C@@H](O)[C@@H]1NC(=O)[C@@H](NC(=O)[C@H](CO)NC(=O)CCOCCOCCNC(=O)CN2CCN(CC(=O)O)CCN(CC(N)=O)CCN(CC(=O)O)CC2)CSCc2ccccc2CSC[C@@H](C(N)=O)NC(=O)[C@H](Cc2c[nH]c3ccccc23)NC(=O)[C@H](Cc2c[nH]c3ccccc23)NC(=O)[C@H](CCC(N)=O)NC(=O)[C@H](CCC(=O)O)NC(=O)[C@H](Cc2ccc3ccccc3c2)NC(=O)[C@@H]2CCCN2C1=O` [VMT-FAP-2-53, PSC-PEG2-[SC(oXdB)TP2-NalEQWWC]-NH2] ({X1-PEG2}-SCTP[2Nal]EQWWC-NH2; linker 2-10 via oXylylene), the Ki (in general, a measure of affinity in units of concentration, obtained from inhibition or displacement) stood at 0.34 nM.

For the molecule `C[C@@H](O)[C@@H]1NC(=O)[C@@H](NC(=O)CCOCCOCCNC(=O)CN2CCN(CC(=O)O)CCN(CC(N)=O)CCN(CC(=O)O)CC2)CSCc2cccc(c2)CSC[C@@H](C(N)=O)NC(=O)[C@H](Cc2c[nH]c3ccccc23)NC(=O)[C@H](Cc2c[nH]c3ccccc23)NC(=O)[C@H](CCC(N)=O)NC(=O)[C@H](CCC(=O)O)NC(=O)[C@H](Cc2c[nH]c3ccccc23)NC(=O)[C@@H]2CCCN2C1=O` [VMT-FAP-2-83, PSC-PEG2-[C(mXdB)TPWEQWWC]-NH2] ({X1-PEG2}-CTPWEQWWC-NH2; linker 1-9 via mXylylene), the Ki came to 0.54 nM.

Turning to `C[C@@H](O)[C@@H]1NC(=O)[C@@H](NC(=O)CCOCCOCCOCCNC(=O)CN2CCN(CC(=O)O)CCN(CC(N)=O)CCN(CC(=O)O)CC2)CSCc2ccccc2CSC[C@@H](C(N)=O)NC(=O)[C@H](Cc2c[nH]c3ccccc23)NC(=O)[C@H](Cc2c[nH]c3ccccc23)NC(=O)[C@H](CCC(N)=O)NC(=O)[C@H](CCC(=O)O)NC(=O)[C@H](Cc2c[nH]c3ccccc23)NC(=O)[C@@H]2CCCN2C1=O` [VMT-FAP-2-68, PSC-PEG3-[C(oXdB)TPWEQWWC]-NH2] ({X1-PEG3}-CTPWEQWWC-NH2; linker 1-9 via oXylylene), the Ki worked out at 0.64 nM.

For the molecule `C[C@@H](O)[C@@H]1NC(=O)[C@@H](NC(=O)[C@H](CO)NC(=O)CCOCCOCCNC(=O)CN2CCN(CC(=O)O)CCN(CC(N)=O)CCN(CC(=O)O)CC2)CSCc2ccccc2CSC[C@@H](C(N)=O)NC(=O)[C@H](Cc2c[nH]c3ccccc23)NC(=O)[C@H](Cc2c[nH]c3ccccc23)NC(=O)[C@H](CCC(N)=O)NC(=O)[C@H](CCC(=O)O)NC(=O)[C@H](Cc2ccccc2)NC(=O)[C@@H]2CCCN2C1=O` [VMT-FAP-2-30, PSC-PEG2-S-[C(oXdB)TPFEQWWC]-NH2] ({X1-PEG2}-SCTPFEQWWC-NH2; linker 2-10 via oXylylene), the Ki was 0.04 nM.

With `C[C@@H](O)[C@@H]1NC(=O)[C@@H](NC(=O)CCOCCOCCNC(=O)CN2CCN(CC(=O)O)CCN(CC(N)=O)CCN(CC(=O)O)CC2)CSCc2ccccc2CSC[C@@H](C(=O)O)NC(=O)[C@H](Cc2c[nH]c3ccccc23)NC(=O)[C@H](Cc2c[nH]c3ccccc23)NC(=O)[C@H](CCC(N)=O)NC(=O)[C@H](CCC(=O)O)NC(=O)[C@H](Cc2c[nH]c3ccccc23)NC(=O)[C@@H]2CCCN2C1=O` [VMT-FAP-2-76, PSC-PEG2-[C(oXdB)TPWEQWWC]-COOH] ({X1-PEG2}-CTPWEQWWC-OH; linker 1-9 via oXylylene), the Ki stood at 31.4 nM.

For the molecule `CC(=O)N[C@@H](CO)C(=O)N[C@H]1CSCc2ccccc2CSC[C@@H](C(N)=O)NC(=O)[C@H](Cc2c[nH]c3ccccc23)NC(=O)[C@H](Cc2c[nH]c3ccccc23)NC(=O)[C@H](CCC(=O)O)NC(=O)[C@H](CCC(=O)O)NC(=O)[C@H](Cc2ccccc2)NC(=O)[C@@H]2CCCN2C(=O)[C@H]([C@@H](C)O)NC1=O` [VMT-FAP-1-105, Ac-S[C(oXdB)TPFEEWWC]-NH2] (Ac-SCTPFEEWWC-NH2; linker 2-10 via oXylylene), the Ki stood at 0.38 nM.

For `CC(=O)N[C@@H](CO)C(=O)N[C@H]1CSCc2ccccc2CSC[C@@H](C(N)=O)NC(=O)[C@H](Cc2c[nH]c3ccccc23)NC(=O)[C@H](Cc2c[nH]c3ccccc23)NC(=O)[C@H](CCC(N)=O)NC(=O)[C@H](CCC(=O)O)NC(=O)[C@H](Cc2ccccc2)NC(=O)[C@@H]2CCCN2C(=O)[C@H]([C@@H](C)O)NC1=O` [VMT-FAP-2-12, Ac-S[C(oXdB)TPFEQWWC]-NH2] (Ac-SCTPFEQWWC-NH2; linker 2-10 via oXylylene), the Ki was 0.55 nM.

Regarding `CC(=O)N[C@@H](CO)C(=O)N[C@H]1CSCc2ccccc2CSC[C@@H](C(N)=O)NC(=O)[C@H](Cc2ccc(O)cc2)NC(=O)[C@H](Cc2c[nH]c3ccccc23)NC(=O)[C@H](CCC(N)=O)NC(=O)[C@H](CCC(=O)O)NC(=O)[C@H](Cc2ccccc2)NC(=O)[C@@H]2CCCN2C(=O)[C@H]([C@@H](C)O)NC1=O` [VMT-FAP-2-28, Ac-S[C(oXdB)TPFEQWYC]-NH2] (Ac-SCTPFEQWYC-NH2; linker 2-10 via oXylylene), the Ki was determined as 2.29 nM.

For `C[C@H](N)C(=O)N[C@H]1CSCc2ccccc2CSC[C@@H](C(N)=O)NC(=O)[C@H](Cc2c[nH]c3ccccc23)NC(=O)[C@H](Cc2c[nH]c3ccccc23)NC(=O)[C@H](CCC(N)=O)NC(=O)[C@H](CCC(=O)O)NC(=O)[C@H](Cc2ccccc2)NC(=O)[C@@H]2CCCN2C(=O)[C@H]([C@@H](C)O)NC1=O` [VMT-FAP-2-19, A[C(oXdB)TPFEQWWC]-NH2] (H-ACTPFEQWWC-NH2; linker 2-10 via oXylylene; N-terminus assumed), the Ki worked out at 0.45 nM.

Turning to `CC(=O)N[C@@H](CO)C(=O)N[C@H]1CSCc2cc(CSCCNC(=O)CCOCCOCCNC(=O)CN3CCN(CC(=O)O)CCN(CC(N)=O)CCN(CC(=O)O)CC3)cc(c2)CSC[C@@H](C(N)=O)NC(=O)[C@H](Cc2c[nH]c3ccccc23)NC(=O)[C@H](Cc2c[nH]c3ccccc23)NC(=O)[C@H](CCC(N)=O)NC(=O)[C@H](CCC(=O)O)NC(=O)[C@H](Cc2c[nH]c3ccccc23)NC(=O)[C@@H]2CCCN2C(=O)[C@H]([C@@H](C)O)NC1=O` [VMT-FAP-2-55, Ac-S-[C(mXtB(CA-PEG2-PSC))TPWEQWWC]-NH2] (Ac-SCTPWEQWWC-NH2; linker 2-10 via X2), the inhibition constant Ki was determined as 1.12 nM.

Take `C[C@@H](O)[C@@H]1NC(=O)[C@@H](NC(=O)[C@H](CO)NC(=O)CCOCCOCCNC(=O)CN2CCN(CC(=O)O)CCN(CC(N)=O)CCN(CC(=O)O)CC2)CSCc2ccccc2CSC[C@@H](C(N)=O)NC(=O)[C@H](Cc2c[nH]c3ccccc23)NC(=O)[C@H](Cc2c[nH]c3ccccc23)NC(=O)[C@H](CCC(N)=O)NC(=O)[C@H](CCC(=O)O)NC(=O)[C@H](Cc2cccc3ccccc23)NC(=O)[C@@H]2CCCN2C1=O` [VMT-FAP-2-60, PSC-PEG2-S-[C(oXdB)TP1-NalEQWWC]-NH2] ({X1-PEG2}-SCTP[1Nal]EQWWC-NH2; linker 2-10 via oXylylene): the Ki was determined as 0.48 nM.

Consider `CC(=O)N[C@@H](CO)C(=O)N[C@H]1CSCc2ccccc2CSC[C@@H](C(N)=O)NC(=O)[C@H](Cc2c[nH]c3ccccc23)NC(=O)[C@H](Cc2c[nH]c3ccccc23)NC(=O)[C@H](Cc2c[nH]cn2)NC(=O)[C@H](CCC(=O)O)NC(=O)[C@H](Cc2ccccc2)NC(=O)[C@@H]2CCCN2C(=O)[C@H]([C@@H](C)O)NC1=O` [VMT-FAP-1-101, Ac-S[C(oXdB)TPFEHWWC]-NH2] (Ac-SCTPFEHWWC-NH2; linker 2-10 via oXylylene), for which the Ki came to 11.2 nM.

Consider `CC(=O)N[C@H]1CSCc2cc(CSCCNC(=O)CCOCCOCCNC(=O)CN3CCN(CC(=O)O)CCN(CC(N)=O)CCN(CC(=O)O)CC3)cc(c2)CSC[C@@H](C(N)=O)NC(=O)[C@H](Cc2c[nH]c3ccccc23)NC(=O)[C@H](Cc2c[nH]c3ccccc23)NC(=O)[C@H](CCC(N)=O)NC(=O)[C@H](CCC(=O)O)NC(=O)[C@H](Cc2c[nH]c3ccccc23)NC(=O)[C@@H]2CCCN2C(=O)[C@H]([C@@H](C)O)NC1=O` [VMT-FAP-2-51, Ac-[C(mXtB(CA-PEG2-PSC))TPWEQWWC]-NH2] (Ac-CTPWEQWWC-NH2; linker 1-9 via X2), for which the Ki was 0.28 nM.

On to `C[C@@H](O)[C@@H]1NC(=O)[C@@H](NC(=O)CCOCCNC(=O)CN2CCN(CC(=O)O)CCN(CC(N)=O)CCN(CC(=O)O)CC2)CSCc2ccccc2CSC[C@@H](C(N)=O)NC(=O)[C@H](Cc2c[nH]c3ccccc23)NC(=O)[C@H](Cc2c[nH]c3ccccc23)NC(=O)[C@H](CCC(N)=O)NC(=O)[C@H](CCC(=O)O)NC(=O)[C@H](Cc2c[nH]c3ccccc23)NC(=O)[C@@H]2CCCN2C1=O` [VMT-FAP-2-67, PSC-PEG1-[C(oXdB)TPWEQWWC]-NH2] ({X1-PEG1}-CTPWEQWWC-NH2; linker 1-9 via oXylylene), for which the Ki came out at 0.08 nM.
